Assay results from PubChem BioAssay (NCI).
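Growth conditions: 96-well plates. Treatment: test compound, 48 hours, 5 concentrations. Analysis: linear interpolation between bracketing concentrations; unreached endpoints set to highest concentration. TGI marks complete inhibition of growth.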

Columns and labels:
Assay in all cases: NCI tumour cell line growth inhibition, 48 h
A498 renal = tested on: A498 renal
A549 NSCLC = tested on: A549 NSCLC
ACHN renal = tested on: ACHN renal
BT-549 breast = tested on: BT-549 breast
CAKI-1 renal = tested on: CAKI-1 renal
CCRF-CEM leukemia = tested on: CCRF-CEM leukemia
COLO 205 colon = tested on: COLO 205 colon
DU-145 prostate = tested on: DU-145 prostate
EKVX NSCLC = tested on: EKVX NSCLC
HCC-2998 colon = tested on: HCC-2998 colon
HCT-116 colon = tested on: HCT-116 colon
HCT-15 colon = tested on: HCT-15 colon
HL-60(TB) leukemia = tested on: HL-60(TB) leukemia
HOP-62 NSCLC = tested on: HOP-62 NSCLC
HOP-92 NSCLC = tested on: HOP-92 NSCLC
HS 578T breast = tested on: HS 578T breast
HT29 colon = tested on: HT29 colon
IGROV1 ovarian = tested on: IGROV1 ovarian
KM12 colon = tested on: KM12 colon
LOX IMVI melanoma = tested on: LOX IMVI melanoma
M14 melanoma = tested on: M14 melanoma
MALME-3M melanoma = tested on: MALME-3M melanoma
MCF7 breast = tested on: MCF7 breast
MDA-MB-231 breast = tested on: MDA-MB-231 breast
MDA-MB-435 = tested on: MDA-MB-435
MDA-N = tested on: MDA-N
MOLT-4 leukemia = tested on: MOLT-4 leukemia
NCI-H226 lung = tested on: NCI-H226 lung
NCI-H23 lung = tested on: NCI-H23 lung
NCI-H460 lung = tested on: NCI-H460 lung
NCI-H522 lung = tested on: NCI-H522 lung
NCI/ADR-RES ovarian = tested on: NCI/ADR-RES ovarian
OVCAR-3 ovarian = tested on: OVCAR-3 ovarian
OVCAR-4 ovarian = tested on: OVCAR-4 ovarian
OVCAR-5 ovarian = tested on: OVCAR-5 ovarian
OVCAR-8 ovarian = tested on: OVCAR-8 ovarian
PC-3 prostate = tested on: PC-3 prostate
RPMI-8226 leukemia = tested on: RPMI-8226 leukemia
RXF 393 renal = tested on: RXF 393 renal
SF-268 CNS = tested on: SF-268 CNS
SF-295 CNS = tested on: SF-295 CNS
SF-539 CNS = tested on: SF-539 CNS
SK-MEL-2 melanoma = tested on: SK-MEL-2 melanoma
SK-MEL-28 melanoma = tested on: SK-MEL-28 melanoma
SK-MEL-5 melanoma = tested on: SK-MEL-5 melanoma
SK-OV-3 ovarian = tested on: SK-OV-3 ovarian
SN12C renal = tested on: SN12C renal
SNB-19 CNS = tested on: SNB-19 CNS
SNB-75 CNS = tested on: SNB-75 CNS
SR leukemia = tested on: SR leukemia
SW-620 colon = tested on: SW-620 colon
T-47D breast = tested on: T-47D breast
TK-10 renal = tested on: TK-10 renal
U251 CNS = tested on: U251 CNS
UACC-257 melanoma = tested on: UACC-257 melanoma
UACC-62 melanoma = tested on: UACC-62 melanoma
UO-31 renal = tested on: UO-31 renal
786-0 renal = tested on: 786-0 renal

With S=C1Cc2c(-c3ccccc3)cc(-c3ccc(Cl)cc3)nc2-c2ccccc2N1 as the molecule, how does the TGI (A498 renal) read?
The TGI was 4.27 µM.

What about the TGI (A549 NSCLC) of the same molecule?
Its TGI is greater than 33.9 µM.

And the TGI (ACHN renal)?
The TGI was 2.69 µM.

And the TGI (BT-549 breast)?
The TGI was 37.9 µM.

And the TGI (CAKI-1 renal)?
Its TGI is 3.33 µM.

And the TGI (CCRF-CEM leukemia)?
The TGI was greater than 100 µM.

And the TGI (COLO 205 colon)?
Its TGI is greater than 42 µM.

And the TGI (DU-145 prostate)?
The TGI was 53.1 µM.

And the TGI (EKVX NSCLC)?
The TGI was greater than 27.1 µM.

What about the TGI (HCC-2998 colon) of the same molecule?
The TGI was greater than 36.8 µM.

What about the TGI (HCT-116 colon) of the same molecule?
The TGI was 13.7 µM.

And the TGI (HCT-15 colon)?
Its TGI is greater than 54.7 µM.

What about the TGI (HL-60(TB) leukemia) of the same molecule?
Its TGI is greater than 100 µM.

What about the TGI (HOP-62 NSCLC) of the same molecule?
The TGI was 3.16 µM.

What about the TGI (HOP-92 NSCLC) of the same molecule?
Its TGI is 3.53 µM.

What about the TGI (HS 578T breast) of the same molecule?
Its TGI is 4.23 µM.

What about the TGI (HT29 colon) of the same molecule?
The TGI was 15.2 µM.

What about the TGI (IGROV1 ovarian) of the same molecule?
Its TGI is 4.36 µM.

And the TGI (KM12 colon)?
Its TGI is 51.3 µM.

What about the TGI (LOX IMVI melanoma) of the same molecule?
The TGI was greater than 46.8 µM.

What about the TGI (M14 melanoma) of the same molecule?
The TGI was greater than 38.5 µM.

And the TGI (MALME-3M melanoma)?
Its TGI is 13 µM.

And the TGI (MCF7 breast)?
Its TGI is greater than 72.6 µM.

And the TGI (MDA-MB-231 breast)?
Its TGI is 5.22 µM.

And the TGI (MDA-MB-435)?
The TGI was greater than 38.8 µM.

And the TGI (MDA-N)?
The TGI was 16.2 µM.

And the TGI (MOLT-4 leukemia)?
Its TGI is greater than 100 µM.

What about the TGI (NCI-H226 lung) of the same molecule?
Its TGI is greater than 31.9 µM.

And the TGI (NCI-H23 lung)?
Its TGI is 19.8 µM.

What about the TGI (NCI-H460 lung) of the same molecule?
Its TGI is greater than 100 µM.

What about the TGI (NCI-H522 lung) of the same molecule?
Its TGI is greater than 24.2 µM.

What about the TGI (NCI/ADR-RES ovarian) of the same molecule?
The TGI was greater than 27.3 µM.

And the TGI (OVCAR-3 ovarian)?
The TGI was 9.9 µM.

And the TGI (OVCAR-4 ovarian)?
The TGI was 1.71 µM.

And the TGI (OVCAR-5 ovarian)?
The TGI was 51.4 µM.

And the TGI (OVCAR-8 ovarian)?
The TGI was 4.64 µM.

And the TGI (PC-3 prostate)?
The TGI was 30.9 µM.

And the TGI (RPMI-8226 leukemia)?
The TGI was greater than 100 µM.

And the TGI (RXF 393 renal)?
The TGI was 11.2 µM.

And the TGI (SF-268 CNS)?
Its TGI is 6.8 µM.

What about the TGI (SF-295 CNS) of the same molecule?
The TGI was 18.9 µM.

And the TGI (SF-539 CNS)?
The TGI was 10.8 µM.

And the TGI (SK-MEL-2 melanoma)?
The TGI was 20.9 µM.

What about the TGI (SK-MEL-28 melanoma) of the same molecule?
Its TGI is greater than 31.9 µM.

What about the TGI (SK-MEL-5 melanoma) of the same molecule?
The TGI was greater than 100 µM.

And the TGI (SK-OV-3 ovarian)?
Its TGI is 7.26 µM.

What about the TGI (SN12C renal) of the same molecule?
Its TGI is 5.26 µM.

And the TGI (SNB-19 CNS)?
Its TGI is 4.14 µM.

And the TGI (SNB-75 CNS)?
The TGI was 3.14 µM.

And the TGI (SR leukemia)?
The TGI was greater than 100 µM.

What about the TGI (SW-620 colon) of the same molecule?
Its TGI is 11.6 µM.

And the TGI (T-47D breast)?
The TGI was greater than 57.3 µM.

And the TGI (TK-10 renal)?
Its TGI is 8.41 µM.

And the TGI (U251 CNS)?
Its TGI is 2.34 µM.

What about the TGI (UACC-257 melanoma) of the same molecule?
Its TGI is 22.2 µM.

What about the TGI (UACC-62 melanoma) of the same molecule?
The TGI was greater than 20.7 µM.

And the TGI (UO-31 renal)?
The TGI was greater than 24 µM.

Which TGI (786-0 renal) does the source give for CC(C)(C)NC(=S)N/N=C/c1ccccn1 here?
Its TGI is greater than 100 µM.

And the TGI (A498 renal)?
The TGI was greater than 79.1 µM.

What about the TGI (A549 NSCLC) of the same molecule?
Its TGI is greater than 100 µM.

What about the TGI (ACHN renal) of the same molecule?
Its TGI is 27 µM.

And the TGI (BT-549 breast)?
The TGI was greater than 100 µM.

What about the TGI (CAKI-1 renal) of the same molecule?
The TGI was greater than 100 µM.

And the TGI (COLO 205 colon)?
The TGI was greater than 100 µM.

What about the TGI (DU-145 prostate) of the same molecule?
The TGI was greater than 100 µM.

What about the TGI (EKVX NSCLC) of the same molecule?
The TGI was greater than 100 µM.

What about the TGI (HCC-2998 colon) of the same molecule?
Its TGI is greater than 100 µM.

What about the TGI (HCT-116 colon) of the same molecule?
The TGI was 1.02 µM.

What about the TGI (HCT-15 colon) of the same molecule?
The TGI was greater than 100 µM.

And the TGI (HOP-62 NSCLC)?
Its TGI is greater than 79.8 µM.

And the TGI (HOP-92 NSCLC)?
The TGI was 89.3 µM.

What about the TGI (HS 578T breast) of the same molecule?
Its TGI is greater than 100 µM.

What about the TGI (HT29 colon) of the same molecule?
The TGI was greater than 100 µM.

And the TGI (IGROV1 ovarian)?
The TGI was greater than 100 µM.

What about the TGI (KM12 colon) of the same molecule?
Its TGI is greater than 100 µM.

What about the TGI (LOX IMVI melanoma) of the same molecule?
The TGI was greater than 76.7 µM.

And the TGI (M14 melanoma)?
Its TGI is greater than 41.9 µM.

And the TGI (MALME-3M melanoma)?
The TGI was greater than 100 µM.

And the TGI (MDA-MB-231 breast)?
Its TGI is greater than 100 µM.

And the TGI (MDA-MB-435)?
The TGI was greater than 100 µM.

What about the TGI (MDA-N) of the same molecule?
Its TGI is greater than 100 µM.

And the TGI (NCI-H226 lung)?
Its TGI is greater than 25.9 µM.

And the TGI (NCI-H23 lung)?
Its TGI is greater than 100 µM.

What about the TGI (NCI-H460 lung) of the same molecule?
The TGI was greater than 100 µM.

And the TGI (NCI-H522 lung)?
The TGI was greater than 86.9 µM.

And the TGI (NCI/ADR-RES ovarian)?
The TGI was greater than 100 µM.

What about the TGI (OVCAR-3 ovarian) of the same molecule?
The TGI was greater than 100 µM.

And the TGI (OVCAR-4 ovarian)?
The TGI was greater than 100 µM.

What about the TGI (OVCAR-5 ovarian) of the same molecule?
Its TGI is greater than 100 µM.

What about the TGI (OVCAR-8 ovarian) of the same molecule?
The TGI was greater than 40.7 µM.

What about the TGI (PC-3 prostate) of the same molecule?
The TGI was greater than 100 µM.

What about the TGI (RPMI-8226 leukemia) of the same molecule?
Its TGI is 3.83 µM.

And the TGI (RXF 393 renal)?
Its TGI is greater than 100 µM.

And the TGI (SF-268 CNS)?
Its TGI is greater than 100 µM.

And the TGI (SF-295 CNS)?
The TGI was greater than 100 µM.

What about the TGI (SF-539 CNS) of the same molecule?
Its TGI is 27.6 µM.

What about the TGI (SK-MEL-2 melanoma) of the same molecule?
Its TGI is greater than 100 µM.

And the TGI (SK-MEL-28 melanoma)?
The TGI was greater than 100 µM.

What about the TGI (SK-MEL-5 melanoma) of the same molecule?
Its TGI is greater than 46.4 µM.

What about the TGI (SK-OV-3 ovarian) of the same molecule?
The TGI was greater than 100 µM.

And the TGI (SN12C renal)?
Its TGI is greater than 96.1 µM.

And the TGI (SNB-19 CNS)?
Its TGI is greater than 100 µM.

And the TGI (SNB-75 CNS)?
The TGI was greater than 100 µM.

What about the TGI (SW-620 colon) of the same molecule?
The TGI was greater than 100 µM.

And the TGI (T-47D breast)?
The TGI was greater than 100 µM.

And the TGI (TK-10 renal)?
The TGI was greater than 100 µM.

And the TGI (U251 CNS)?
Its TGI is greater than 100 µM.

And the TGI (UACC-62 melanoma)?
Its TGI is 37.3 µM.

What about the TGI (UO-31 renal) of the same molecule?
Its TGI is greater than 47.8 µM.
